{"source": "the supplement of paper PMC10307832", "assay_in_all_cases": "relative viability (nuclei count vs DMSO), 5 days (fraction); higher = more cells survive", "key": {"HCC-366": {"system": "HCC-366", "outline": "(§1)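 Lung cancer cell lines in 1536-well plates got either a single drug or a fixed anchor-drug dose together with five library-drug doses (not always all listed) in √10 steps, by pin tool, on the day after seeding. Nuclei were counted after 5 days, and relative viability is the treated-to-vehicle ratio of nuclei counts. Values are medians of duplicate plates.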"}, "LOU-NH91": {"system": "LOU-NH91", "outline": "as §1"}, "NCI-H460": {"system": "NCI-H460", "outline": "as §1"}, "NCI-H1734": {"system": "NCI-H1734", "outline": "as §1"}, "NCI-H1793": {"system": "NCI-H1793", "outline": "as §1"}, "NCI-H2228": {"system": "NCI-H2228", "outline": "as §1"}, "ABC-1": {"system": "ABC-1", "outline": "as §1"}, "NCI-H1755": {"system": "NCI-H1755", "outline": "as §1"}, "CAL-12T": {"system": "CAL-12T", "outline": "as §1"}, "NCI-H1395": {"system": "NCI-H1395", "outline": "as §1"}, "NCI-H2087": {"system": "NCI-H2087", "outline": "as §1"}, "ChaGo-K-1": {"system": "ChaGo-K-1", "outline": "as §1"}, "NCI-H1944": {"system": "NCI-H1944", "outline": "as §1"}, "LU99A": {"system": "LU99A", "outline": "as §1"}, "UMC-11": {"system": "UMC-11", "outline": "as §1"}, "RERF-LC-KJ": {"system": "RERF-LC-KJ", "outline": "as §1"}, "NCI-H1651": {"system": "NCI-H1651", "outline": "as §1"}, "NCI-H2405": {"system": "NCI-H2405", "outline": "as §1"}, "LC-2-ad": {"system": "LC-2-ad", "outline": "as §1"}, "NCI-H3122": {"system": "NCI-H3122", "outline": "as §1"}, "HCC-78": {"system": "HCC-78", "outline": "as §1"}, "PC-3 [JPC-3]": {"system": "PC-3 [JPC-3]", "outline": "as §1"}, "NCI-H2170": {"system": "NCI-H2170", "outline": "as §1"}}}
{"smiles": "O=C(O)c1ccc(-c2c[nH]c3ncc(-c4ccccc4)cc23)cc1C1CCCC1", "note": "+ CS(=O)(=O)N1CCN(Cc2cc3nc(-c4cccc5[nH]ncc45)nc(N4CCOCC4)c3s2)CC1 [Pictilisib] (partner 1 µM)", "values": [{"measurement": "relative viability", "setting": "HCC-366; first compound 0.04 µM", "value": 0.136}, {"measurement": "relative viability", "setting": "HCC-366; first compound 0.1265 µM", "value": 0.192}, {"measurement": "relative viability", "setting": "HCC-366; first compound 0.4 µM", "value": 0.138}, {"measurement": "relative viability", "setting": "HCC-366; first compound 1.265 µM", "value": 0.153}, {"measurement": "relative viability", "setting": "LOU-NH91; first compound 0.04 µM", "value": 0.513}, {"measurement": "relative viability", "setting": "LOU-NH91; first compound 0.1265 µM", "value": 0.517}, {"measurement": "relative viability", "setting": "LOU-NH91; first compound 0.4 µM", "value": 0.512}, {"measurement": "relative viability", "setting": "LOU-NH91; first compound 1.265 µM", "value": 0.52}, {"measurement": "relative viability", "setting": "NCI-H460; first compound 0.04 µM", "value": 0.409}, {"measurement": "relative viability", "setting": "NCI-H460; first compound 0.1265 µM", "value": 0.574}, {"measurement": "relative viability", "setting": "NCI-H460; first compound 0.4 µM", "value": 0.38}, {"measurement": "relative viability", "setting": "NCI-H460; first compound 1.265 µM", "value": 0.365}, {"measurement": "relative viability", "setting": "NCI-H1734; first compound 0.04 µM", "value": 0.429}, {"measurement": "relative viability", "setting": "NCI-H1734; first compound 0.1265 µM", "value": 0.556}, {"measurement": "relative viability", "setting": "NCI-H1734; first compound 0.4 µM", "value": 0.445}, {"measurement": "relative viability", "setting": "NCI-H1734; first compound 1.265 µM", "value": 0.419}, {"measurement": "relative viability", "setting": "NCI-H1793; first compound 0.04 µM", "value": 0.387}, {"measurement": "relative viability", "setting": "NCI-H1793; first compound 0.1265 µM", "value": 0.43}, {"measurement": "relative viability", "setting": "NCI-H1793; first compound 0.4 µM", "value": 0.308}, {"measurement": "relative viability", "setting": "NCI-H1793; first compound 1.265 µM", "value": 0.336}, {"measurement": "relative viability", "setting": "NCI-H2228; first compound 0.04 µM", "value": 0.58}, {"measurement": "relative viability", "setting": "NCI-H2228; first compound 0.1265 µM", "value": 0.549}, {"measurement": "relative viability", "setting": "NCI-H2228; first compound 0.4 µM", "value": 0.26}, {"measurement": "relative viability", "setting": "NCI-H2228; first compound 1.265 µM", "value": 0.274}, {"measurement": "relative viability", "setting": "ABC-1; first compound 0.04 µM", "value": 0.673}, {"measurement": "relative viability", "setting": "ABC-1; first compound 0.1265 µM", "value": 0.596}, {"measurement": "relative viability", "setting": "ABC-1; first compound 0.4 µM", "value": 0.689}, {"measurement": "relative viability", "setting": "ABC-1; first compound 1.265 µM", "value": 0.757}, {"measurement": "relative viability", "setting": "NCI-H1755; first compound 0.04 µM", "value": 0.381}, {"measurement": "relative viability", "setting": "NCI-H1755; first compound 0.1265 µM", "value": 0.603}, {"measurement": "relative viability", "setting": "NCI-H1755; first compound 0.4 µM", "value": 0.45}, {"measurement": "relative viability", "setting": "NCI-H1755; first compound 1.265 µM", "value": 0.442}, {"measurement": "relative viability", "setting": "CAL-12T; first compound 0.04 µM", "value": 0.478}, {"measurement": "relative viability", "setting": "CAL-12T; first compound 0.1265 µM", "value": 0.696}, {"measurement": "relative viability", "setting": "CAL-12T; first compound 0.4 µM", "value": 0.494}, {"measurement": "relative viability", "setting": "CAL-12T; first compound 1.265 µM", "value": 0.448}, {"measurement": "relative viability", "setting": "NCI-H1395; first compound 0.04 µM", "value": 0.769}, {"measurement": "relative viability", "setting": "NCI-H1395; first compound 0.1265 µM", "value": 0.691}, {"measurement": "relative viability", "setting": "NCI-H1395; first compound 0.4 µM", "value": 0.625}, {"measurement": "relative viability", "setting": "NCI-H1395; first compound 1.265 µM", "value": 0.555}, {"measurement": "relative viability", "setting": "NCI-H2087; first compound 0.04 µM", "value": 0.963}, {"measurement": "relative viability", "setting": "NCI-H2087; first compound 0.1265 µM", "value": 1.09}, {"measurement": "relative viability", "setting": "NCI-H2087; first compound 0.4 µM", "value": 0.758}, {"measurement": "relative viability", "setting": "NCI-H2087; first compound 1.265 µM", "value": 0.712}, {"measurement": "relative viability", "setting": "ChaGo-K-1; first compound 0.04 µM", "value": 0.788}, {"measurement": "relative viability", "setting": "ChaGo-K-1; first compound 0.1265 µM", "value": 1.11}, {"measurement": "relative viability", "setting": "ChaGo-K-1; first compound 0.4 µM", "value": 0.649}, {"measurement": "relative viability", "setting": "ChaGo-K-1; first compound 1.265 µM", "value": 0.923}, {"measurement": "relative viability", "setting": "NCI-H1944; first compound 0.04 µM", "value": 0.359}, {"measurement": "relative viability", "setting": "NCI-H1944; first compound 0.1265 µM", "value": 0.338}, {"measurement": "relative viability", "setting": "NCI-H1944; first compound 0.4 µM", "value": 0.309}, {"measurement": "relative viability", "setting": "NCI-H1944; first compound 1.265 µM", "value": 0.35}, {"measurement": "relative viability", "setting": "LU99A; first compound 0.04 µM", "value": 0.321}, {"measurement": "relative viability", "setting": "LU99A; first compound 0.1265 µM", "value": 0.315}, {"measurement": "relative viability", "setting": "LU99A; first compound 0.4 µM", "value": 0.308}, {"measurement": "relative viability", "setting": "LU99A; first compound 1.265 µM", "value": 0.278}, {"measurement": "relative viability", "setting": "UMC-11; first compound 0.04 µM", "value": 0.827}, {"measurement": "relative viability", "setting": "UMC-11; first compound 0.1265 µM", "value": 0.937}, {"measurement": "relative viability", "setting": "UMC-11; first compound 0.4 µM", "value": 0.853}, {"measurement": "relative viability", "setting": "UMC-11; first compound 1.265 µM", "value": 0.775}, {"measurement": "relative viability", "setting": "RERF-LC-KJ; first compound 0.04 µM", "value": 0.487}, {"measurement": "relative viability", "setting": "RERF-LC-KJ; first compound 0.1265 µM", "value": 0.594}, {"measurement": "relative viability", "setting": "RERF-LC-KJ; first compound 0.4 µM", "value": 0.503}, {"measurement": "relative viability", "setting": "RERF-LC-KJ; first compound 1.265 µM", "value": 0.501}, {"measurement": "relative viability", "setting": "NCI-H1651; first compound 0.04 µM", "value": 0.557}, {"measurement": "relative viability", "setting": "NCI-H1651; first compound 0.1265 µM", "value": 0.641}, {"measurement": "relative viability", "setting": "NCI-H1651; first compound 0.4 µM", "value": 0.451}, {"measurement": "relative viability", "setting": "NCI-H1651; first compound 1.265 µM", "value": 0.455}, {"measurement": "relative viability", "setting": "NCI-H2405; first compound 0.04 µM", "value": 0.458}, {"measurement": "relative viability", "setting": "NCI-H2405; first compound 0.1265 µM", "value": 0.543}, {"measurement": "relative viability", "setting": "NCI-H2405; first compound 0.4 µM", "value": 0.383}, {"measurement": "relative viability", "setting": "NCI-H2405; first compound 1.265 µM", "value": 0.408}, {"measurement": "relative viability", "setting": "LC-2-ad; first compound 0.04 µM", "value": 0.48}, {"measurement": "relative viability", "setting": "LC-2-ad; first compound 0.1265 µM", "value": 0.46}, {"measurement": "relative viability", "setting": "LC-2-ad; first compound 0.4 µM", "value": 0.462}, {"measurement": "relative viability", "setting": "LC-2-ad; first compound 1.265 µM", "value": 0.351}, {"measurement": "relative viability", "setting": "NCI-H3122; first compound 0.04 µM", "value": 0.565}, {"measurement": "relative viability", "setting": "NCI-H3122; first compound 0.1265 µM", "value": 0.683}, {"measurement": "relative viability", "setting": "NCI-H3122; first compound 0.4 µM", "value": 0.619}, {"measurement": "relative viability", "setting": "NCI-H3122; first compound 1.265 µM", "value": 0.574}, {"measurement": "relative viability", "setting": "HCC-78; first compound 0.04 µM", "value": 0.231}, {"measurement": "relative viability", "setting": "HCC-78; first compound 0.1265 µM", "value": 0.263}, {"measurement": "relative viability", "setting": "HCC-78; first compound 0.4 µM", "value": 0.179}, {"measurement": "relative viability", "setting": "HCC-78; first compound 1.265 µM", "value": 0.168}, {"measurement": "relative viability", "setting": "PC-3 [JPC-3]; first compound 0.04 µM", "value": 0.784}, {"measurement": "relative viability", "setting": "PC-3 [JPC-3]; first compound 0.1265 µM", "value": 0.799}, {"measurement": "relative viability", "setting": "PC-3 [JPC-3]; first compound 0.4 µM", "value": 0.757}, {"measurement": "relative viability", "setting": "PC-3 [JPC-3]; first compound 1.265 µM", "value": 0.768}, {"measurement": "relative viability", "setting": "NCI-H2170; first compound 0.04 µM", "value": 0.386}, {"measurement": "relative viability", "setting": "NCI-H2170; first compound 0.1265 µM", "value": 0.326}, {"measurement": "relative viability", "setting": "NCI-H2170; first compound 0.4 µM", "value": 0.294}, {"measurement": "relative viability", "setting": "NCI-H2170; first compound 1.265 µM", "value": 0.211}]}
